Data taken from US20060153897A1, “Zinc-containing foods” (priority 2001, published 2006).

What was measured:
[1] = tested on: Salmonella typhimurium TA 100, TA 1535, TA 98 and TA 1537; experiment: Mutagenicity test (Ames) using microorganisms; type: cell-based; conditions: for mutation-inducing ability: Salmonella typhimurium TA 100, TA 1535, TA 98, TA 1537, compared with solvent control; for growth inhibition: high concentrations
Source text: (§1) As a mutagenicity test (Ames) using microorganisms, mutation-inducing ability of zinc complexes with maltol, picolinic acid, picolinamide, 6-methyl-picolinic acid, L-threonine and L-valine was examined using Salmonella typhimurium TA 100, TA 1535, TA 98 and TA 1537 and Escherichia coli WP 2 uvr A.

[2] = tested on: Escherichia coli WP 2 uvr A; experiment: Mutagenicity test (Ames) using microorganisms; type: cell-based; conditions: compared with solvent control
Source text: as §1

female and male rats = experiment: Acute toxicity test; type: in vivo; conditions: female and male rats, 2, 8 and 15 days after administration of 2,000 mg/kg
Method: (§2) Outside the application of GLP, acute toxicity test was carried out for zinc complexes with maltol, picolinic acid, picolinamide, 6-methyl-picolinic acid, L-threonine and L-valine.

Acute toxicity test = type: in vivo; conditions: rat, in vivo
Method: as §2

[3] = ligand per se, strain not stated

Compound | mutation-inducing ability [1] | mutation-inducing ability [2] | change in normal state and autopsy compared with solvent control group (female and male rats) | growth inhibition [1, 3] | also measured
Cc1cccc(C(=O)[O-])n1.Cc1cccc(C(=O)[O-])n1.[Zn+2] [bis(6-methylpicolinic acid)/zinc complex] | no mutation-inducing ability | no mutation-inducing ability | no special change | – | –
Cc1occc(=O)c1O [maltol, reference compound] | – | – | – | growth inhibition at high concentrations | LD50 at 15 days (Acute toxicity test; female): 1590 mg/kg; LD50 at 15 days (Acute toxicity test; male): 1680 mg/kg
O=C(O)c1ccccn1 [picolinic acid, reference compound] | – | – | – | growth inhibition at high concentrations | –
CC(C)[C@H](N)C(=O)[O-].CC(C)[C@H](N)C(=O)[O-].[Zn+2] [zinc complex with L-valine] | no mutation-inducing ability | no mutation-inducing ability | no special change | – | –
O=C([O-])c1ccccn1.O=C([O-])c1ccccn1.[Zn+2] [zinc complex with picolinic acid] | very weakly positive | – | no special change | – | growth inhibition ([1]; TA 98, TA 1537 strains): growth inhibition at high concentrations
bis(maltol)/zinc complex [zinc complex with maltol] | very weakly positive | – | – | – | growth inhibition ([1]; TA 1535 strain): growth inhibition at high concentrations
